From BigSolDB 2.1

CC(=O)Nc1cccc(N)c1
solubility (mole fraction)
Settings	278.15 K	283.15 K	288.15 K	293.15 K	298.15 K	303.15 K	308.15 K	313.15 K	318.15 K	323.15 K
in DMF	0.029	0.043	0.061	0.088	0.124	0.166	0.22	0.285	0.358	0.44
in THF	0.108	0.146	0.194	0.256	0.328	0.404	0.487	0.568	0.653	0.729
in acetone	0.05	0.063	0.081	0.101	0.125	0.153	0.186	0.225	0.27	0.319
in acetonitrile	0.0283	0.0322	0.0382	0.0453	0.0535	0.0644	0.0752	0.0908	0.108	0.128
in ethyl acetate	0.033	0.038	0.043	0.049	0.055	0.063	0.074	0.085	0.099	0.114
in isopropanol	0.021	0.031	0.048	0.064	0.084	0.108	0.138	0.174	0.218	0.266
in methanol	0.049	0.074	0.105	0.148	0.207	0.274	0.351	0.44	0.53	0.613
in water	0.025	0.039	0.06	0.091	0.133	0.19	0.262	0.347	0.439	0.541
